# Measured values published in paper PMC10408569, “Recruitment of hexahydroquinoline as anticancer scaffold targeting inhibition of wild and mutants EGFR (EGFR^WT, EGFR^T790M, and EGFR^L858R)” (Journal of Enzyme Inhibition and Medicinal Chemistry, 2023).
# Experiments:
# NCI/ADR-RES = assay: NCI-60 anticancer screening (SRB); type: cell-based; details: Homo sapiens, ovarian cancer, one dose 10 μM, read-out: Growth Inhibition Percentage (GI %)
# UACC-257 = assay: NCI-60 anticancer screening (SRB); type: cell-based; details: Homo sapiens; UACC-257, melanoma; one dose 10 μM; read-out: Growth Inhibition Percentage (GI %)
# KM 12 = assay: NCI-60 anticancer screening (SRB); type: cell-based; details: Homo sapiens, KM12; KM 12, colon cancer; one dose 10 μM; read-out: Growth Inhibition Percentage (GI %)
# NCI-H322M = assay: NCI-60 anticancer screening (SRB); type: cell-based; details: Homo sapiens, NSC lung cancer, one dose 10 μM, read-out: Growth Inhibition Percentage (GI %)
# SNB-75 = assay: NCI-60 anticancer screening (SRB); type: cell-based; details: Homo sapiens; SNB-75, CNS cancer; one dose 10 μM; read-out: Growth Inhibition Percentage (GI %)
# OVCAR-5 = assay: NCI-60 anticancer screening (SRB); type: cell-based; details: Homo sapiens; OVCAR-5, ovarian cancer; one dose 10 μM; read-out: Growth Inhibition Percentage (GI %)
# CAKI-1 = assay: NCI-60 anticancer screening (SRB); type: cell-based; details: Homo sapiens; CAKI-1, renal cancer; one dose 10 μM; read-out: Growth Inhibition Percentage (GI %)
# MDA-MB-435 = assay: NCI-60 anticancer screening (SRB); type: cell-based; details: Homo sapiens; MDA-MB-435, melanoma; one dose 10 μM; read-out: Growth Inhibition Percentage (GI %)
# U251 = assay: NCI-60 anticancer screening (SRB); type: cell-based; details: Homo sapiens, U-251; U251, CNS cancer; one dose 10 μM; read-out: Growth Inhibition Percentage (GI %)
# HL-60(TB) = assay: NCI-60 anticancer screening (SRB); type: cell-based; details: Homo sapiens, leukemia, one dose 10 μM, read-out: Growth Inhibition Percentage (GI %)
# DU-145 = assay: NCI-60 anticancer screening (SRB); type: cell-based; details: Homo sapiens; DU-145, prostate cancer; one dose 10 μM; read-out: Growth Inhibition Percentage (GI %)
# IGROV1 = assay: NCI-60 anticancer screening (SRB); type: cell-based; details: Homo sapiens, IGROV-1; IGROV1, ovarian cancer; one dose 10 μM; read-out: Growth Inhibition Percentage (GI %)
# NCI-H522 = assay: NCI-60 anticancer screening (SRB); type: cell-based; details: Homo sapiens; NCI-H522, NSC lung cancer; one dose 10 μM; read-out: Growth Inhibition Percentage (GI %)
# UO-31 = assay: NCI-60 anticancer screening (SRB); type: cell-based; details: Homo sapiens; UO-31, renal cancer; one dose 10 μM; read-out: Growth Inhibition Percentage (GI %)
# HOP-62 = assay: NCI-60 anticancer screening (SRB); type: cell-based; details: Homo sapiens; HOP-62, NSC lung cancer; one dose 10 μM; read-out: Growth Inhibition Percentage (GI %)
# 786-0 = assay: NCI-60 anticancer screening (SRB); type: cell-based; details: Homo sapiens; 786-0, renal cancer; one dose 10 μM; read-out: Growth Inhibition Percentage (GI %)
# SNB-19 = assay: NCI-60 anticancer screening (SRB); type: cell-based; details: Homo sapiens; SNB-19, CNS cancer; one dose 10 μM; read-out: Growth Inhibition Percentage (GI %)
# MOLT-4 = assay: NCI-60 anticancer screening (SRB); type: cell-based; details: Homo sapiens; MOLT-4, leukemia; one dose 10 μM; read-out: Growth Inhibition Percentage (GI %)
# NCI-H226 = assay: NCI-60 anticancer screening (SRB); type: cell-based; details: Homo sapiens; NCI-H226, NSC lung cancer; one dose 10 μM; read-out: Growth Inhibition Percentage (GI %)
# EKVX = assay: NCI-60 anticancer screening (SRB); type: cell-based; details: Homo sapiens, NSC lung cancer, one dose 10 μM, read-out: Growth Inhibition Percentage (GI %)
# BT-549 = assay: NCI-60 anticancer screening (SRB); type: cell-based; details: Homo sapiens; BT-549, breast cancer; one dose 10 μM; read-out: Growth Inhibition Percentage (GI %)
# NCI 60 cancer cell lines = assay: NCI-60 anticancer screening (SRB), whole panel; type: cell-based, human; details: mean across the NCI-60 panel; one dose 10 μM
# MALME-3M = assay: NCI-60 anticancer screening (SRB); type: cell-based; details: Homo sapiens, melanoma, one dose 10 μM, read-out: Growth Inhibition Percentage (GI %)
# MDA-MB-468 = assay: NCI-60 anticancer screening (SRB); type: cell-based; details: Homo sapiens; MDA-MB-468, breast cancer; one dose 10 μM; read-out: Growth Inhibition Percentage (GI %)
# OVCAR-8 = assay: NCI-60 anticancer screening (SRB); type: cell-based; details: Homo sapiens; OVCAR-8, ovarian cancer; one dose 10 μM; read-out: Growth Inhibition Percentage (GI %)
# COLO 205 = assay: NCI-60 anticancer screening (SRB); type: cell-based; details: Homo sapiens; COLO 205, colon cancer; one dose 10 μM; read-out: Growth Inhibition Percentage (GI %)
# MDA-MB-231 = assay: NCI-60 anticancer screening (SRB); type: cell-based; details: Homo sapiens; MDA-MB-231, breast cancer; one dose 10 μM; read-out: Growth Inhibition Percentage (GI %)
# HCT-15 = assay: NCI-60 anticancer screening (SRB); type: cell-based; details: Homo sapiens; HCT-15, colon cancer; one dose 10 μM; read-out: Growth Inhibition Percentage (GI %)
# HCC-2998 = assay: NCI-60 anticancer screening (SRB); type: cell-based; details: Homo sapiens; HCC-2998, colon cancer; one dose 10 μM; read-out: Growth Inhibition Percentage (GI %)
# A549/ATCC = assay: NCI-60 anticancer screening (SRB); type: cell-based; details: Homo sapiens; A549/ATCC, NSC lung cancer; one dose 10 μM; read-out: Growth Inhibition Percentage (GI %)
# OVCAR-3 = assay: NCI-60 anticancer screening (SRB); type: cell-based; details: Homo sapiens; OVCAR-3, ovarian cancer; one dose 10 μM; read-out: Growth Inhibition Percentage (GI %)
# SK-MEL-2 = assay: NCI-60 anticancer screening (SRB); type: cell-based; details: Homo sapiens; SK-MEL-2, melanoma; one dose 10 μM; read-out: Growth Inhibition Percentage (GI %)
SMILES,inhibition at 10 µM (NCI/ADR-RES),inhibition at 10 µM (UACC-257),inhibition at 10 µM (KM 12),inhibition at 10 µM (NCI-H322M),inhibition at 10 µM (SNB-75),inhibition at 10 µM (OVCAR-5),inhibition at 10 µM (CAKI-1),inhibition at 10 µM (MDA-MB-435),inhibition at 10 µM (U251),inhibition at 10 µM (HL-60(TB)),inhibition at 10 µM (DU-145),inhibition at 10 µM (IGROV1),inhibition at 10 µM (NCI-H522),inhibition at 10 µM (UO-31),inhibition at 10 µM (HOP-62),inhibition at 10 µM (786-0),inhibition at 10 µM (SNB-19),inhibition at 10 µM (MOLT-4),inhibition at 10 µM (NCI-H226),inhibition at 10 µM (EKVX),further results
"CCOC(=O)C1=C(N)N(c2ccccc2)C2=C(C(=O)CC(C)(C)C2)C1c1ccc(Cl)cc1 (racemic) [8c, (±)-Ethyl 2-amino-4–(4-chlorophenyl)-7,7-dimethyl-5-oxo-1-phenyl-1,4,5,6,7,8-hexahydroquinoline-3-carboxylate]",74%,72%,82%,35%,27%,42%,50%,78%,58%,94%,42%,40%,62%,71%,19%,33%,85%,99%,30%,72%,inhibition at 10 µM (BT-549): 57%; GI % mean (NCI 60 cancer cell lines): 63%; inhibition at 10 µM (MALME-3M): 84%; inhibition at 10 µM (MDA-MB-468): 67%; inhibition at 10 µM (OVCAR-8): 39%; inhibition at 10 µM (COLO 205): 118%; inhibition at 10 µM (MDA-MB-231): 47%; inhibition at 10 µM (HCT-15): 85%; melting point: 215 to 217 °C; inhibition at 10 µM (HCC-2998): 57%; inhibition at 10 µM (A549/ATCC): 66%; inhibition at 10 µM (OVCAR-3): 48%; inhibition at 10 µM (SK-MEL-2): 70%
"CCOC(=O)C1=C(N)N(c2ccc(Cl)cc2)C2=C(C(=O)CC(C)(C)C2)C1c1ccc(Cl)cc1 (racemic) [8e, (±)-Ethyl 2-amino-1,4-bis (4-chlorophenyl)-7,7-dimethyl-5-oxo-1,4,5,6,7,8-hexahydroquinoline-3-carboxylate]",32%,56%,38%,< 10%,27%,< 10%,19%,54%,31%,62%,12%,12%,19%,34%,< 10%,23%,31%,89%,< 10%,33%,inhibition at 10 µM (BT-549): 21%; GI % mean (NCI 60 cancer cell lines): 32%; inhibition at 10 µM (MALME-3M): 39%; inhibition at 10 µM (MDA-MB-468): 33%; inhibition at 10 µM (OVCAR-8): 30%; inhibition at 10 µM (COLO 205): 53%; inhibition at 10 µM (MDA-MB-231): 24%; inhibition at 10 µM (HCT-15): 58%; melting point: 220 to 222 °C; inhibition at 10 µM (HCC-2998): 11%; inhibition at 10 µM (A549/ATCC): 62%; inhibition at 10 µM (OVCAR-3): 16%; inhibition at 10 µM (SK-MEL-2): < 10%
"CCOC(=O)C1=C(N)N(c2ccccc2)C2=C(C(=O)CC(C)(C)C2)C1c1ccc(OC)cc1 (racemic) [8f, (±)-Ethyl2-amino-4–(4-methoxyphenyl)-7,7-dimethyl-5-oxo-1-phenyl-1,4,5,6,7,8-hexahydroquinoline-3-carboxylate]",< 10%,< 10%,< 10%,< 10%,< 10%,< 10%,22%,< 10%,< 10%,< 10%,< 10%,< 10%,< 10%,< 10%,< 10%,11%,14%,14%,12%,< 10%,inhibition at 10 µM (BT-549): < 10%; GI % mean (NCI 60 cancer cell lines): - ((-) = GI % mean less than 10); inhibition at 10 µM (MALME-3M): < 10%; inhibition at 10 µM (MDA-MB-468): < 10%; inhibition at 10 µM (OVCAR-8): < 10%; inhibition at 10 µM (COLO 205): < 10%; inhibition at 10 µM (MDA-MB-231): < 10%; inhibition at 10 µM (HCT-15): < 10%; melting point: 169 to 171 °C; inhibition at 10 µM (HCC-2998): < 10%; inhibition at 10 µM (A549/ATCC): < 10%; inhibition at 10 µM (OVCAR-3): < 10%; inhibition at 10 µM (SK-MEL-2): 16%
"CCOC(=O)C1=C(N)N(c2ccc(C)cc2)C2=C(C(=O)CC(C)(C)C2)C1c1ccc(OC)cc1 (racemic) [8g, (±)-Ethyl 2-amino-4–(4-methoxyphenyl)-7,7-dimethyl-1–(4-methylphenyl)-5-oxo-1,4,5,6,7,8-hexahydroquinoline-3-carboxylate]",< 10%,< 10%,< 10%,< 10%,13%,< 10%,< 10%,< 10%,< 10%,< 10%,< 10%,< 10%,< 10%,< 10%,< 10%,< 10%,< 10%,< 10%,< 10%,< 10%,inhibition at 10 µM (BT-549): < 10%; GI % mean (NCI 60 cancer cell lines): - ((-) = GI % mean less than 10); inhibition at 10 µM (MALME-3M): < 10%; inhibition at 10 µM (MDA-MB-468): < 10%; inhibition at 10 µM (OVCAR-8): < 10%; inhibition at 10 µM (COLO 205): < 10%; inhibition at 10 µM (MDA-MB-231): < 10%; inhibition at 10 µM (HCT-15): < 10%; melting point: 181 to 183 °C; inhibition at 10 µM (HCC-2998): < 10%; inhibition at 10 µM (A549/ATCC): < 10%; inhibition at 10 µM (OVCAR-3): < 10%; inhibition at 10 µM (SK-MEL-2): < 10%
